Measured values from patent US20060052362A1, “Skeletal muscle protecting agent” (priority 2003, published 2006).
Where two headings read alike, the source gives them in different places.

What was measured:
[1] = tested on: Human normal skeletal muscle cells; conditions: for The number of the live cells (% of Group 1): 3 days
[2] = tested on: Human normal skeletal muscle cells; experiment: Effect of Test compound 3 on cytotoxicity of HMG-CoA reductase inhibitor (1), drugs added at the same time; format: cell-based; conditions: 3 days
Description: Effect of Test Compound 3 on Cytotoxicity of HMG-CoA Reductase Inhibitor (1)

[3] = tested on: Human normal skeletal muscle cells; experiment: Effect of Test compound 3 on cytotoxicity of HMG-CoA reductase inhibitor (2), pretreatment 1 day; format: cell-based
Experimental: Effect of Test Compound 3 on Cytotoxicity of HMG-CoA Reductase Inhibitor (2)
The drug in Treatment 1 was added and after 1 day, the medium was completely removed.

[4] = tested on: geranylgeraniol (GGOH) content in soleus muscle; experiment: Increasing effect on geranylgeraniol (GGOH) content in soleus muscle; format: in vivo; conditions: male SD rat, Mean ± SE (N = 4)
Experimental: Increasing Effect on Geranylgeraniol (GGOH) Content in Soleus Muscle
To 6 week-old male SD rat (4 per group) was orally administered forcedly by means of a stomach sonde a vehicle or Test compounds 1 or 2 at a dose of 10 mL/kg once a day for 14 days so as to be in an amount of 40 or 200 mg/kg. In the next morning of the 14th administration, the rat was killed under ether anesthesia. Immediately, the soleus muscle was collected and frozen on a dry ice, and then kept at −80° C. Later, to the muscle homogenate was added phosphatase for dephosphorylation, and then the concentration of geranylgeraniol (sum total of geranylgeranyl pyrophosphate and geranylgeraniol) in the muscle was determined with LC/MS/MS (Table 1).

[5] = target: T1, squalene synthase (Homo sapiens, UniProt P37268); conditions: described in Test 1 of JP-A No. 9-136880; cited from earlier work
T1 sequence (P37268 1-417): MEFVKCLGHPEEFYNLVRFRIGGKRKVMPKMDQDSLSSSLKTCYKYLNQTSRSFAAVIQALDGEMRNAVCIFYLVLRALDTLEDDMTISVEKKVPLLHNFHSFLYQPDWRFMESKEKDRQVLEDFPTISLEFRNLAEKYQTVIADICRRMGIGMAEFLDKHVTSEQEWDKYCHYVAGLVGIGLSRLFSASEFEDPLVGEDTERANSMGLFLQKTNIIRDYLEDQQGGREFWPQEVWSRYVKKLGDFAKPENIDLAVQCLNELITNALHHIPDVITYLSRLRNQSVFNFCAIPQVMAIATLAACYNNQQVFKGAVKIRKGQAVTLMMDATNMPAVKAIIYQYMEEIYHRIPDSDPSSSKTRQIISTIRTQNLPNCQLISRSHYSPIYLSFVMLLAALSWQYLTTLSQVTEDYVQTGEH

[6] = single drug 10 μM, other treatment vehicle, Mean ± SE (N = 3)
[7] = 40 mg/kg oral once a day for 14 days
[8] = 200 mg/kg oral once a day for 14 days

Which “The number of the live cells (% of Group 1)” value (“The number … (% of Group 1)” below) [1, 6] does the source give for `CCC(C)(C)C(=O)O[C@H]1C[C@@H](C)C=C2C=C[C@H](C)[C@H](CC[C@@H]3C[C@@H](O)CC(=O)O3)[C@H]21` [Simvastatin, simvastatin] here?
Its value is 46.2 ± 1.5 % of Group 1.

Which results are given for `CC(C)c1c(C(=O)Nc2ccccc2)c(-c2ccccc2)c(-c2ccc(F)cc2)n1CC[C@@H](O)C[C@@H](O)CC(=O)O` [Atorvastatin, atorvastatin, reference compound]?
The number of the live cells (% of Group 1) ([2]; Atorvastatin 100 μM alone (Treatment 1 vehicle)): 34 ± 0.6 % of Group 1; The number of the live cells (% of Group 1) ([3]; vehicle 1 day, then Atorvastatin 10 μM 3 days): 57 ± 1.1 % of Group 1; The number of the live cells (% of Group 1) ([3]; vehicle 1 day, then Atorvastatin 100 μM 3 days): 35 ± 1.9 % of Group 1; The number of the live cells (% of Group 1) [1, 6]: 52.0 ± 0.9 % of Group 1

With `COc1cccc([C@H]2O[C@H](CC(=O)N3CCC(CC(=O)O)CC3)C(=O)N(CC(C)(C)COC(C)=O)c3ccc(Cl)cc32)c1OC` [Test compound 1, N-[[(3R,5S)-1-(3-acetoxy-2,2-dimethylpropyl)-7-chloro-5-(2,3-dimethoxyphenyl)-2-oxo-1,2,3,5-tetrahydro-4,1-benzoxazepin-3-yl]acetyl]piperidine-4-acetic acid] as the molecule, how does the “GGOH content in the soleus muscle” value [4, 7] read?
The value was 0.224 ± 0.017 μg/g soleus muscle.

What about the “GGOH content in the soleus muscle” value [4, 8] of the same molecule?
Its value is 0.255 ± 0.027 μg/g soleus muscle.

For `COc1cccc([C@H]2O[C@H](CC(=O)Nc3cccc(CCC(=O)O)c3)C(=O)N(CC(C)(C)CO)c3ccc(Cl)cc32)c1OC` [Test compound 2, 3-[3-[[[(3R,5S)-7-chloro-5-(2,3-dimethoxyphenyl)-1-(3-hydroxy-2,2-dimethylpropyl)-2-oxo-1,2,3,5-tetrahydro-4,1-benzoxazepin-3-yl]acetyl]amino]phenyl]propionic acid], which “inhibitory activity against squalene synthase” value [5] is on record?
The value was “has inhibitory activity against squalene synthase”.

What about the “GGOH content in the soleus muscle” value [4, 7] of the same molecule?
The value was 0.225 ± 0.019 μg/g soleus muscle.

What about the “GGOH content in the soleus muscle” value [4, 8] of the same molecule?
The value was 0.255 ± 0.006 μg/g soleus muscle.

Which “inhibitory activity against squalene synthase” value [5] does the source give for `COc1cccc([C@H]2O[C@H](CC(=O)N3CCC(CC(=O)O)CC3)C(=O)N(CC(C)(C)CO)c3ccc(Cl)cc32)c1OC` [Test compound 3, N-[[(3R,5S)-7-chloro-5-(2,3-dimethoxyphenyl)-1-(3-hydroxy-2,2-dimethylpropyl)-2-oxo-1,2,3,5-tetrahydro-4,1-benzoxazepin-3-yl]acetyl]piperidine-4-acetic acid] here?
Its value is “has inhibitory activity against squalene synthase”.

And the “The number … (% of Group 1)” value ([2]; Test compound 3 10 μM added at the same time as Atorvastatin 100 μM)?
Its value is 42 ± 0.5 % of Group 1.

And the “The number … (% of Group 1)” value ([2]; Test compound 3 10 μM alone (Treatment 2 vehicle), Mean ± SE (N = 3))?
The value was 96 ± 1.2 % of Group 1.

What about the “The number … (% of Group 1)” value ([3]; Test compound 3 10 μM for 1 day, medium removed, then Atorvastatin 10 μM 3 days) of the same molecule?
The value was 76 ± 1.8 % of Group 1.

And the “The number … (% of Group 1)” value ([3]; Test compound 3 10 μM for 1 day, medium removed, then Atorvastatin 100 μM 3 days)?
Its value is 45 ± 0.2 % of Group 1.

And the “The number … (% of Group 1)” value ([3]; Test compound 3 10 μM for 1 day, medium removed, then vehicle 3 days, Mean ± SE (N = 3))?
The value was 98 ± 2.3 % of Group 1.

With `CC(C)=CCC/C(C)=C/CC/C(C)=C/CC/C(C)=C/COP(=O)(O)OP(=O)(O)O` [GGPP, geranylgeranyl pyrophosphate] as the molecule, how does the “The number … (% of Group 1)” value ([1]; GGPP 10 μM added together with Atorvastatin 10 μM) read?
Its value is 67.8 ± 1.3$ % of Group 1.

What about the “The number … (% of Group 1)” value ([1]; GGPP 10 μM added together with Simvastatin 10 μM) of the same molecule?
Its value is 72.3 ± 1.6 % of Group 1.

What about the “The number … (% of Group 1)” value [1, 6] of the same molecule?
Its value is 93.5 ± 0.8 % of Group 1.

What about the “activity reducing cytotoxicity in skeletal muscle cells (in words)” value ([1]; summary of Table 2) of the same molecule?
Its value is “had an activity reducing cytotoxicity in skeletal muscle cells”.
